Measured values from the supplement of paper PMC10307832.

Key:
Assay in all cases: relative viability (nuclei count vs DMSO), 5 days (fraction); higher = more cells survive
[1] = compound: C=CCn1c(=O)c2cnc(Nc3ccc(N4CCN(C)CC4)cc3)nc2n1-c1cccc(C(C)(C)O)n1 [Adavosertib] + C[C@@H](Oc1cc(-c2cnn(C3CCNCC3)c2)cnc1N)c1c(Cl)ccc(F)c1Cl [Crizotinib] (partner 1 µM)
Outline: (§1)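 For relative viability, nuclei counts in treated wells were divided by those in vehicle wells. Lung cancer cell lines had been pin-tool dosed in 1536-well plates the day after seeding and cultured for 5 days, then fixed and stained in one step (final 0.05% Triton X-100, 1% formaldehyde, 1 ug/ml Hoechst) and imaged at 4×. Doses were one drug alone or a fixed anchor-drug dose plus five library-drug doses (not always all listed) in √10 steps, and values are duplicate-plate medians.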

[2] = compound: COc1nc(N)nc2c1ncn2[C@@H]1O[C@H](CO)[C@@H](O)[C@@H]1O [Nelarabine] + CC(C)C[C@H](NC(=O)[C@H](Cc1ccccc1)NC(=O)c1cnccn1)B(O)O [Bortezomib] (partner 0.002 µM)
Outline: as §1

[3] = compound: COc1nc(N)nc2c1ncn2[C@@H]1O[C@H](CO)[C@@H](O)[C@@H]1O [Nelarabine] + COc1cc2c(Oc3ccc(NC(=O)C4(C(=O)Nc5ccc(F)cc5)CC4)cc3F)ccnc2cc1OCCCN1CCOCC1 [Foretinib] (partner 0.25 µM)
Outline: as §1

[4] = compound: COc1nc(N)nc2c1ncn2[C@@H]1O[C@H](CO)[C@@H](O)[C@@H]1O [Nelarabine] + CS(=O)(=O)CCNCc1ccc(-c2ccc3ncnc(Nc4ccc(OCc5cccc(F)c5)c(Cl)c4)c3c2)o1 [Lapatinib] (partner 2 µM)
Outline: as §1

EMC-BAC-2
relative viability ([1]; first compound 0.01 µM): 0.846
relative viability ([1]; first compound 0.03162 µM): 0.754
relative viability ([1]; first compound 0.1 µM): 0.887
relative viability ([1]; first compound 0.3162 µM): 0.811
relative viability ([2]; first compound 0.01 µM): 1.24
relative viability ([2]; first compound 0.03162 µM): 1.06
relative viability ([2]; first compound 0.1 µM): 1.05
relative viability ([2]; first compound 0.3162 µM): 1.15
relative viability ([2]; first compound 1 µM): 1.04
relative viability ([3]; first compound 0.01 µM): 1.06
relative viability ([3]; first compound 0.03162 µM): 1
relative viability ([3]; first compound 0.1 µM): 0.913
relative viability ([3]; first compound 0.3162 µM): 0.975
relative viability ([3]; first compound 1 µM): 0.963
relative viability ([4]; first compound 0.01 µM): 1.05
relative viability ([4]; first compound 0.03162 µM): 0.909
relative viability ([4]; first compound 0.1 µM): 0.883
relative viability ([4]; first compound 0.3162 µM): 0.962
relative viability ([4]; first compound 1 µM): 0.885
